Results: paper PMC3401038 (ACS Chemical Biology, 2012)

Key:
[1] = tested on: M. tuberculosis H37Rv; format: cell-based, Mycobacterium tuberculosis; conditions: hypoxic shift down M. tuberculosis H37Rv, result in words
[2] = tested on: M. tuberculosis H37Rv; format: cell-based, Mycobacterium tuberculosis; conditions: hypoxic shift down M. tuberculosis, 5 days treatment, result in words
[3] = tested on: M. bovis BCGMtbNar; format: cell-based, Mycobacterium bovis BCG

| Structure (SMILES) | effect on ATP levels [1] | bacterial viability (CFU) [2] | effect on ATP pool / intracellular ATP levels [3] |
| --- | --- | --- | --- |
| O=[N+]([O-])c1cn2c(n1)OC[C@@H](OCc1ccc(OC(F)(F)F)cc1)C2 [PA-824] | reduction in ATP levels | reduction in bacterial viability | – |
| COc1nc2ccc(Br)cc2cc1[C@@H](c1ccccc1)[C@@](O)(CCN(C)C)c1cccc2ccccc12 [TMC207] | reduction in ATP levels | reduction in bacterial viability | significantly reduce the ATP pool |
| Cc1ncc([N+](=O)[O-])n1CCO [metronidazole] | – | – | not affected |
